Measured values from article PMC11095988, “The Molecular Mechanism of FABP4 Inhibition Effects of GAS and 4-HBA in Gastrodia elata Blume Was Discussed Based on NMR and Molecular Docking” (Journal of Analytical Methods in Chemistry, 2024).

How the values were obtained:
FABP4 [1] = target: T1, FABP4 (Homo sapiens, UniProt P15090); test: fluorescence displacement; STD-NMR (weak signal) and ligand-observed 1H-NMR; type: binding
T1 sequence (P15090 2-132): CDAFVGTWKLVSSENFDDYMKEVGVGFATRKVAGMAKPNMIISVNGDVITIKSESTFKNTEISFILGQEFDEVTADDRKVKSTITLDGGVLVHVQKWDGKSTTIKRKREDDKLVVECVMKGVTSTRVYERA

FABP4 [2] = target: T1, FABP4; test: fluorescent probe, emission shift on binding to FABP4
FABP4 [3] = target: T1, FABP4; test: fluorescence displacement; STD-NMR and ligand-observed 1H-NMR; type: binding

## OCc1ccc(O)cc1 [4-HBA, 4-hydroxybenzyl alcohol]
FABP4 [1]
  IC50: 50.5 µM

## O=S(=O)(O)c1cccc2cccc(Nc3ccccc3)c12 [1,8-ANS, 8-anilino-1-naphthalenesulfonic acid]
FABP4 [2]
  fluorescent probe, emission shift on binding to FABP4: When ANS binds to FABP4, its maximum emission light will be blue-shifted

## OCc1ccc(O[C@@H]2O[C@H](CO)[C@@H](O)[C@H](O)[C@H]2O)cc1 [GAS, gastrodin]
FABP4 [3]
  IC50: 29.8 µM
